Test results taken from PMC8330957 (Nature genetics, 2020).
Entries after “also recorded” stand apart in the source; their conditions may differ.

Columns and labels:
JURKAT cells [1] = assay: RNA-seq of JURKAT cells treated with UNC1999; type: cell-based, human; settings: three-day treatment with 5 μM UNC1999
JURKAT cells [2] = assay: RT-qPCR of H3K27me3-marked genes after UNC1999 treatment, JURKAT; type: cell-based, human; settings: 5 μM UNC1999, three days, three independent experiments
CUTLL1 cells = assay: RT-qPCR of H3K27me3-marked genes after UNC1999 treatment, CUTLL1; type: cell-based, human; settings: 5 μM UNC1999, three days, three independent experiments
[3] = system: BAHCC1 (chromatin-bound), 293 cells; assay: Cell fractionation and immunoblotting of chromatin-bound BAHCC1; type: cell-based; settings: immunoblotting after cell fractionation, UNC1999 versus DMSO
[4] = system: 3×Flag-BAHCC1 at TSS of target genes, JURKAT cells; assay: Flag ChIP-qPCR of BAHCC1 binding to target genes; type: cell-based, human; settings: UNC1999 versus DMSO, three independent experiments

CCCc1cc(C)[nH]c(=O)c1CNC(=O)c1cc(-c2ccc(N3CCN(C(C)C)CC3)nc2)cc2c1cnn2C(C)C [UNC1999]
overlap of UNC1999-derepressed DEGs with those caused by BAHCC1 loss (JURKAT cells [1]): significant overlapping; also recorded: significantly overlapped | expression of examined H3K27me3-marked genes (JURKAT cells [2]): re-activation | expression of examined H3K27me3-marked genes (CUTLL1 cells): re-activation | overall BAHCC1 binding to chromatin [3]: impaired | BAHCC1 binding to its target genes [4]: significantly reduced
